BindingDB's records for doi:10.1124/jpet.104.066092 (Wyeth Research, 2004)

Biological target: Glutamate receptor ionotropic, NMDA 1 (Rattus norvegicus, UniProt P35439)

`O=C(O)[C@@H]1C[C@H](CP(=O)(O)O)CCN1` [Selfotel] gave a Ki of over 10 µM.
